In patent EP0973746B1, “SUBSTITUTED 3-CYANO QUINOLINES” (Wyeth Holdings Corporation, priority 1997, dated 1998):
In brackets after ≈: the same amount, converted by molar mass. Several values for one entry are separate records, joined by “and”; a condition that tells them apart may be missing. Equal entries are not always repeated. Where two headings read alike, the source gives them in different places.

What was measured:
[1] = tested on: A2780DDP; assay: Inhibition of cancer cell growth as measured by cell number, A2780DDP; type: cell-based; conditions: Homo sapiens, 48 h, read-out: IC50 A2780DDP
[2] = molecular target: recombinant human MEK 1 (MAPKK) and recombinant human ERK2 (MAPK); assay: Mitogen Activated Protein Kinase (MAPK) assay, two component coupled MEK 1 / ERK2; type: biochemical; conditions: separate entries for the same compound = evaluated more than one time;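 note: MEK 1-activated ERK2 phosphorylates MBP or Myc peptide with 33P-ATP, filter capture and scintillation counting, inhibitor preincubated with ERK2 30 min at 0 °C, inhibition relative to uninhibited control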
[3] = tested on: A431; assay: Inhibition of cancer cell growth as measured by cell number, A431; type: cell-based, human; conditions: Homo sapiens, A-431, 48 h, read-out: IC50 A431, cell number, Sulforhodamine B, 48 hours exposure;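 note: human A431 line, picked because it overexpresses epidermal growth factor receptor (EGFR)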
From the text: (§1) The cell lines were chosen since they overexpressed epidermal growth factor receptor (EGFR) (i.e. A431) or HER2/neu (SKBR3), or had little to no expression of the these receptors (SW620, LOX, MCF7).

[4] = tested on: CACO2; assay: Inhibition of cancer cell growth as measured by cell number, CACO2; type: cell-based; conditions: Homo sapiens, Caco-2, 48 h, read-out: IC50 CACO2
[5] = molecular target: epidermal growth factor receptor kinase (Homo sapiens, UniProt P00533); assay: biochemical
Chain of epidermal growth factor receptor kinase (P00533 25-1210): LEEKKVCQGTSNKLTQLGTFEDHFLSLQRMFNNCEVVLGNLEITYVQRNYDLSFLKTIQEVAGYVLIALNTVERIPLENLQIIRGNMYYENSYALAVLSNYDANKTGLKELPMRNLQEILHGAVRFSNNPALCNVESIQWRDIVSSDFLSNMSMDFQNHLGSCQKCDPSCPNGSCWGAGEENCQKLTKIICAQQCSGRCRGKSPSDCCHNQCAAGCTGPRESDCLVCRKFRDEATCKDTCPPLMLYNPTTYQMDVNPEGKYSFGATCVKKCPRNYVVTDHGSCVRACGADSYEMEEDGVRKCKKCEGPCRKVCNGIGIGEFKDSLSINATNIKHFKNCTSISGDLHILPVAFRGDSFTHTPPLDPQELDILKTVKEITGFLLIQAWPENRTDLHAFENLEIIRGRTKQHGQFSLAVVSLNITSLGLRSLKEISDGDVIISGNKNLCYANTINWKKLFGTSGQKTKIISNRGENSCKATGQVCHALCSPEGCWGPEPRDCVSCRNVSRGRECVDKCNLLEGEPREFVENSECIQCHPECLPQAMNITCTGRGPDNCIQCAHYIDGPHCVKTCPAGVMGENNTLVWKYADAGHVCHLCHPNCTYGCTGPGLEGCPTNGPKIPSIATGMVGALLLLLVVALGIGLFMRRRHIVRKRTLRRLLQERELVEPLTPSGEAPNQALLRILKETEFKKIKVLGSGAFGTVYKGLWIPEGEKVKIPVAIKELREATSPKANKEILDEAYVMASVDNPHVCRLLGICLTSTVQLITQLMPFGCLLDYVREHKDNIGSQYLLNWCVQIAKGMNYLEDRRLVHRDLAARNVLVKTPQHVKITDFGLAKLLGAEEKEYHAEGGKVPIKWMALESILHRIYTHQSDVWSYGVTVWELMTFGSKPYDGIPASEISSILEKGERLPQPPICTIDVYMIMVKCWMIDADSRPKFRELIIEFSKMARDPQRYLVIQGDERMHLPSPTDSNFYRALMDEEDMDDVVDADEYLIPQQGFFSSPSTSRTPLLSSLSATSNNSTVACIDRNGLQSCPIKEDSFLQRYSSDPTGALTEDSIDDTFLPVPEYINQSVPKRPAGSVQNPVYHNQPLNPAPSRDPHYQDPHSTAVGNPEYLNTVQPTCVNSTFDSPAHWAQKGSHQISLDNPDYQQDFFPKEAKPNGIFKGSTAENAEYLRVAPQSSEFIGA
Method: The enzyme was obtained as a membrane extract of A431 cells (American Type Culture Collection, Rockville, MD). A431 cells were grown in T175 flasks to 80% confluency. The cells were washed twice with phosphate buffered saline (PBS) without Ca^2+. Flasks were rotated for 1.5 hours in 20 ml PBS with 1.0 mM ethylenediaminetetraacetic acid (EDTA) at room temperature and centrifuged at 600g for 10 minutes. The cells were solubilized in 1 ml per 5 x 10^6 cells of cold lysis buffer {10mM 4-(2-hydroxyethyl)-1-piperazineethane-sulfonic acid (HEPES), pH 7.6, 10 mM NaCl, 2mM EDTA, 1mM phenylmethyl-sulfonyl-fluoride (PMSF), 10 mg/ml aprotinin, 10 mg/ml leupeptin, 0.1 mM sodium orthovanadate} in a Dounce homogenizer with 10 strokes on ice. The lysate was centrifuged at 600g for 10 minutes first to clear cell debris and the supernatant further centrifuged at 100,000 g for 30 min at 4°C. The membrane pellet was suspended in 1.5 ml HNG buffer (50 mM HEPES, pH 7.6, 125 mM NaCl, 10% glycerol). The membrane extract was divided into aliquots, immediately frozen in liquid nitrogen and stored at -70°C.
Compounds to be evaluated were made into 10 mg/ml stock solutions in 100% dimethylsulfoxide (DMSO). Prior to experiment, stock solutions were diluted to 500 mM with buffer (30 mM Hepes pH 7.4) and then serially diluted to the desired concentration.
An aliquot of the A431 membrane extract (10 mg/ml) was diluted in 30 mM HEPES (pH 7.4) to give a protein concentration of 50 ug/ml. […] To this was added the ^33p-ATP (10 mCi/ml) diluted 1:10 in assay buffer along with the substrate peptide at a concentration of 0.5 mM (control reactions get no test compound) and the reaction was allowed to proceed for 30 min at 30°C. The reaction was stopped with 10% TCA and left on ice for at least 10 min after which tubes were microcentrifuged at full speed for 15 min. The a portion of the supernatants were spotted on P81 phosphocellulose discs and washed twice in 1% acetic acid then water for 5 min each followed by scintillation counting. […] The % inhibition of the test compound was determined for at least three different concentrations and the IC50 value was evaluated from the dose response curve. […] CPM(control) is in units of counts per minute and was a number expressing the amount of radiolabeled ATP (g-^33P) incorporated into the RR-SRC peptide substrate by the enzyme after 30 minutes at 30°C in the absence of test compound as measured by liquid scintillation counting. The CPM values were corrected for the background counts produced by ATP in the absence of the enzymatic reaction. The IC50 values reported in TABLE 1 are averages of the number of tests conducted.

[6] = tested on: CCRF-CFM; assay: Inhibition of cancer cell growth as measured by cell number, CCRF-CFM; type: cell-based; conditions: Homo sapiens, 48 h, read-out: IC50 CCRF-CFM
[7] = tested on: COLO205; assay: Inhibition of cancer cell growth as measured by cell number, COLO205; type: cell-based; conditions: Homo sapiens, COLO 205, 48 h, read-out: IC50 COLO205
[8] = tested on: SW948; assay: Inhibition of cancer cell growth as measured by cell number, SW948; type: cell-based; conditions: Homo sapiens, SW948, 48 h, read-out: IC50 SW948
[9] = tested on: NHEK; assay: Inhibition of cell growth by incorporation of [3H]-thymidine, NHEK; type: cell-based, human; conditions: Homo sapiens, read-out: IC50 NHEK
Method: (§2) Representative compounds of this invention were evaluated for their ability to inhibit the growth of the cell lines described below in vitro. The inhibition is quantitated by measuring the decrease in the incorporation of radio-labeled thymidine when the cells are grown in the presence of the inhibitor. […] Cells were routinely grown in a humidified incubator in 5% CO2 in air.
(§3) Cells were seeded at 10,000 cells/well in 96 well plates in complete media and allowed to grow to log phase. At this stage the complete media was replaced with media containing 0.5% FBS (for cells growing in 10% FBS) or media lacking epidermal growth factor (EGF) (for cells growing in serum free media). […] Media with test compound was then removed and complete media was added back. The cells were allowed to grow for 18 hours. This is followed by incubation in [^3H]thymidine (1mCi/ml in serum/EGF media) for 4 hours. Cells were lysed in 0.5 M NaOH for at least 30 min at 37°C and radioactivity analyzed.
(§4) The % inhibition of the compound evaluated was determined for at least three different concentrations and the IC50 value evaluated from the dose response curve. […] CPM(control) is in units of counts per minute and is a number expressing the amount of [^3H]thymidine incorporated onto the DNA when cells are grown in the absence of test compound as measured by liquid scintillation counting.

[10] = tested on: DU145; assay: Inhibition of cancer cell growth as measured by cell number, DU145; type: cell-based; conditions: Homo sapiens, DU-145, 48 h, read-out: IC50 DU145
[11] = tested on: HCT15; assay: Inhibition of cancer cell growth as measured by cell number, HCT15; type: cell-based; conditions: Homo sapiens, HCT-15, 48 h, read-out: IC50 HCT15
[12] = tested on: CCL228; assay: Inhibition of cancer cell growth as measured by cell number, CCL228; type: cell-based; conditions: Homo sapiens, 48 h, read-out: IC50 CCL228
[13] = tested on: MIP; assay: Inhibition of cancer cell growth as measured by cell number, MIP; type: cell-based; conditions: Homo sapiens; cell number, Sulforhodamine B, 48 hours exposure; Table 4; read-out: IC50 MIP
[14] = tested on: SKBR3; assay: Inhibition of cancer cell growth as measured by cell number, SKBR3; type: cell-based, human; conditions: Homo sapiens, SK-BR-3, 48 h, read-out: IC50 SKBR3, cell number, Sulforhodamine B, 48 hours exposure;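 note: SK-BR-3 cells were selected as a line overexpressing HER2/neu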
From the text: as §1

[15] = tested on: HL60; assay: Inhibition of cancer cell growth as measured by cell number, HL60; type: cell-based; conditions: Homo sapiens, HL-60, 48 h, read-out: IC50 HL60
[16] = tested on: LS174T; assay: Inhibition of cancer cell growth as measured by cell number, LS174T; type: cell-based; conditions: Homo sapiens, 48 h, read-out: IC50 LS174T
[17] = tested on: A549; assay: Inhibition of cancer cell growth as measured by cell number, A549; type: cell-based; conditions: Homo sapiens, A549, 48 h, read-out: IC50 A549
[18] = tested on: LX1; assay: Inhibition of cancer cell growth as measured by cell number, LX1; type: cell-based; conditions: Homo sapiens, LX-1, 48 h, read-out: IC50 LX1
[19] = tested on: A27805; assay: Inhibition of cancer cell growth as measured by cell number, A27805; type: cell-based; conditions: Homo sapiens, 48 h, read-out: IC50 A27805
[20] = tested on: MCF7; assay: Inhibition of cancer cell growth as measured by cell number, MCF7; type: cell-based, human; conditions: Homo sapiens, MCF7, 48 h, read-out: IC50 MCF7, cell number, Sulforhodamine B, 48 hours exposure;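 note: MCF7 was included as a line with little or no EGFR or HER2/neu expression, in contrast to the receptor-overexpressing lines of the panel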
From the text: as §1

[21] = tested on: A431; assay: Inhibition of cell growth by incorporation of [3H]-thymidine, A431; type: cell-based, human; conditions: Homo sapiens, A-431, read-out: IC50 A431
Method: as §2, §3, §4

[22] = tested on: T47D; assay: Inhibition of cancer cell growth as measured by cell number, T47D; type: cell-based; conditions: Homo sapiens, 48 h, read-out: IC50 T47D
[23] = tested on: human epidermoid tumors (A431); assay: In vivo inhibition of the growth of human epidermoid tumors (A431); conditions: for S/T = No. Survivors/No. Treated: Day +28 post tumor staging; for tumor growth was inhibited: 100 mg/kg administered i.p. during days 1-10
How it was run: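 Female BALB/c nu/nu mice from Charles River were injected subcutaneously with 5 X 10^6 human epidermoid (A431) tumor cells. Once tumors weighed 100 to 150 mg, animals were randomized into treatment groups on day zero, and untreated controls were included. Tumor mass, calculated as (length X width^2)/2, was measured every 7 days for 28 days after staging. Relative growth was mean mass on days 7, 14, 21 and 28 divided by the day-zero mean.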

[24] = tested on: NEC; assay: Inhibition of cancer cell growth as measured by cell number, NEC; type: cell-based; conditions: Homo sapiens, 48 h, read-out: IC50 NEC
[25] = tested on: LNCAP; assay: Inhibition of cancer cell growth as measured by cell number, LNCAP; type: cell-based; conditions: Homo sapiens, 48 h, read-out: IC50 LNCAP
[26] = tested on: B7474; assay: Inhibition of cancer cell growth as measured by cell number, B7474; type: cell-based; conditions: Homo sapiens, 48 h, read-out: IC50 B7474
[27] = tested on: LOX; assay: Inhibition of cancer cell growth as measured by cell number, LOX; type: cell-based, human; conditions: Homo sapiens, LOX, 48 h, read-out: IC50 LOX, cell number, Sulforhodamine B, 48 hours exposure;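 note: LOX cells served as a line with low or absent EGFR and HER2/neu expression, in contrast to receptor-overexpressing lines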
From the text: as §1

[28] = tested on: SW620; assay: Inhibition of cancer cell growth as measured by cell number, SW620; type: cell-based, human; conditions: Homo sapiens, SW-620, 48 h, read-out: IC50 SW620, cell number, Sulforhodamine B, 48 hours exposure;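 note: SW620 was included as a cell line with little or no EGFR or HER2/neu expression, in contrast to receptor-overexpressing lines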
From the text: as §1

[29] = tested on: HTB161; assay: Inhibition of cancer cell growth as measured by cell number, HTB161; type: cell-based; conditions: Homo sapiens, 48 h, read-out: IC50 HTB161
[30] = 10 mg/kg/dose IP on days 1 through 10
[31] = 50 mg/kg/dose IP on days 1 through 10
[32] = 100 mg/kg/dose IP on days 1 through 10

With `CCOc1cc2ncc(C#N)c(Nc3cccc(Br)c3)c2cc1OCC` [Example 47, 4-[(3-Bromophenyl)amino]6,7-diethoxy-3-quinolinecarbonitrile] the IC50 [1] was 0.0645 µg/mL (≈ 0.157 µM), the IC50 [2] was 8 µM and 5 µM and the IC50 ([3]; Table 6) was 0.0446 µg/mL (≈ 0.108 µM). For the same molecule, the IC50 ([3]; Table 8) was less than 0.01 µg/mL, the IC50 [4] was 0.0701 µg/mL (≈ 0.17 µM) and the IC50 [5] was 0.13 µM. For the same molecule, the IC50 [6] was 0.068 µg/mL (≈ 0.165 µM), the IC50 [7] was 0.0757 µg/mL (≈ 0.184 µM) and the IC50 [8] was 0.0683 µg/mL (≈ 0.166 µM). For the same molecule, the IC50 [9] was 0.03 µM, the IC50 [10] was 0.068 µg/mL (≈ 0.165 µM) and the IC50 [11] was 0.0395 µg/mL (≈ 0.0959 µM). For the same molecule, the IC50 [12] was 0.0715 µg/mL (≈ 0.174 µM), the IC50 [13] was 0.0693 µg/mL (≈ 0.168 µM) and the IC50 ([14]; Table 7) was 0.0467 µg/mL (≈ 0.113 µM). The IC50 ([14]; Table 8) was less than 0.01 µg/mL, the IC50 [15] was 0.0625 µg/mL (≈ 0.152 µM) and the IC50 [16] was 0.0468 µg/mL (≈ 0.114 µM). It also gave an IC50 [17] of 0.0679 µg/mL (≈ 0.165 µM), an IC50 [18] of 0.076 µg/mL (≈ 0.184 µM) and an IC50 [19] of 0.053 µg/mL (≈ 0.129 µM). The IC50 ([20]; Table 5) was 0.072 µg/mL (≈ 0.175 µM), the IC50 ([20]; Table 8) was 0.02 µg/mL (≈ 0.0485 µM) and the IC50 [21] was 1.5 µM. The IC50 [22] was 0.0467 µg/mL (≈ 0.113 µM), the “%T/C Day 7” value [23, 30] was 69% and the “%T/C Day 14” value [23, 30] was 74%. The “%T/C Day 21” value [23, 30] was 116%, the “%T/C Day 28” value [23, 30] was 136% and the “S/T = No. Survivors/No. Treated” value [23, 30] was 5/5. For the same molecule, the “%T/C Day 7” value [23, 31] was 44 (d) %, the “%T/C Day 14” value [23, 31] was 55 (d) % and the “%T/C Day 21” value [23, 31] was 87%. The “%T/C Day 28” value [23, 31] was 102%, the “S/T = No. Survivors/No. Treated” value [23, 31] was 5/5 and the “tumor growth was inhibited” value ([23]; day 7) was 66%. The “tumor growth was inhibited” value ([23]; day 14) was 63%, the “tumor growth was inhibited” value ([23]; day 28) was 57% and the “%T/C Day 7” value [23, 32] was 34(d) %. For the same molecule, the “%T/C Day 14” value [23, 32] was 37(d) %, the “%T/C Day 21” value [23, 32] was 51% and the “%T/C Day 28” value [23, 32] was 43%. The “S/T = No. Survivors/No. Treated” value [23, 32] was 5/5, the IC50 [24] was 0.0671 µg/mL (≈ 0.163 µM) and the IC50 [25] was 0.0337 µg/mL (≈ 0.0816 µM). The IC50 [26] was 0.233 µg/mL (≈ 0.566 µM), the IC50 ([27]; Table 6) was 0.0605 µg/mL (≈ 0.147 µM) and the IC50 ([27]; Table 8) was 0.03 µg/mL (≈ 0.0728 µM). It also gave an IC50 ([28]; Table 4) of 0.0672 µg/mL (≈ 0.163 µM), an IC50 ([28]; Table 8) of less than 0.01 µg/mL and an IC50 [29] of 0.00395 µg/mL (≈ 0.00957 µM).
